Active and inactive are the calls of the source.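 The calls were made as follows: active = inhibition of at least 2%; inactive = inhibition below 2%.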
Biological target: Tyrosine-protein kinase ABL1 (Homo sapiens) (UniProt P00519)
Experiment: ABL1 kinase inhibition, RIN1-independent, late-stage follow-up, RIN1-ABL interaction inhibitor project, biochemical, purified CRK substrate, chemiluminescent immunoblot, powders, round 1 (AID 624303)
Conditions: purified ABL1 phosphorylating CRK, anti-pTyr chemiluminescence blot; at 10 µM; active compounds read high

Sequence of Tyrosine-protein kinase ABL1 (Homo sapiens) (P00519 whole entry, looked up): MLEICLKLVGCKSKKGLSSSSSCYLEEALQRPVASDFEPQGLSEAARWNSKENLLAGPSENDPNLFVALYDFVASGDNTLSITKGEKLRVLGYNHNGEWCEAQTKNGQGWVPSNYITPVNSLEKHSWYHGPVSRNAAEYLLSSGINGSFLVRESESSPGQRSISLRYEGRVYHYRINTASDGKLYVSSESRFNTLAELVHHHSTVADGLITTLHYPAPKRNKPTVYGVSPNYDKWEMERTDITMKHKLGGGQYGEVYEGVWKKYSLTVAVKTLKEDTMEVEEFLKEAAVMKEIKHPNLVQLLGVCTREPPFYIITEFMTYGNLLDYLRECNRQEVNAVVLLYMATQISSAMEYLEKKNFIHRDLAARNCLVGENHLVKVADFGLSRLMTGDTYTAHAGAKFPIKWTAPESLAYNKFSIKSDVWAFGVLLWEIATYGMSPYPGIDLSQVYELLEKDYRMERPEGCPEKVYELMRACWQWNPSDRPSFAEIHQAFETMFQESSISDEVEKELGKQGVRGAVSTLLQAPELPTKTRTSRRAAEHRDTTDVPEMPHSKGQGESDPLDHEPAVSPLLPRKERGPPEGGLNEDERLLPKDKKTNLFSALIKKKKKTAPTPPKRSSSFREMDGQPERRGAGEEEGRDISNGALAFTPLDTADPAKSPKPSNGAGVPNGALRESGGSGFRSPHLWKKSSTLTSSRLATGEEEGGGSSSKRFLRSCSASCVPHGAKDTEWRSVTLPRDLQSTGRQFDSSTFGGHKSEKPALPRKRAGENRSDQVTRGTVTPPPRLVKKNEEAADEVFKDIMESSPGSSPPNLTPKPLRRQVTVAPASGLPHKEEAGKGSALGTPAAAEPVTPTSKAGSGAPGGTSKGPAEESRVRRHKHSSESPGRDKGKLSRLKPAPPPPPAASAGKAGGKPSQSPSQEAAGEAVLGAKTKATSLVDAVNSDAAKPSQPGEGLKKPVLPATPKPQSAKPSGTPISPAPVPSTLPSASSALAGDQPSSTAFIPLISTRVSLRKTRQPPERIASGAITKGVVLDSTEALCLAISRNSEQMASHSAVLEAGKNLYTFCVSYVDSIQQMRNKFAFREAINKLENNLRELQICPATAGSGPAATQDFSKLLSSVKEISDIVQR

| Structure (SMILES) | inhibition |
| --- | --- |
| COc1ccc(CCNc2cc(=O)[nH]c(N)n2)cc1 | 0% (inactive) |
| O=C(c1cc(COc2cccc3cccnc23)on1)N1CCC[C@H]1CO | 0% (inactive) |
| O=c1cc(OCc2ccccc2)cc[nH]1 | 0% (inactive) |
| CN(CCc1ccccc1)C(=O)c1ccc(NC(=O)Cc2ccc(NC(=O)C3CCN(C(=O)c4ccccc4)CC3)cc2)cc1 | 0% (inactive) |
| COc1cccc(CSc2nnc(CSc3nc4nc(C)cc(C)n4n3)s2)c1 | 0% (inactive) |
| O=C(Cc1ccc(NC(=O)C2CCN(C(=O)c3ccccc3)CC2)cc1)Nc1ccc(C(=O)N2CCOCC2)cc1 | 0% (inactive) |
| O=C(Cc1ccc(NC(=O)C2CCN(C(=O)C3CCCCC3)CC2)cc1)Nc1ccc(C(=O)N2CCOCC2)cc1 | 0% (inactive) |
| N#Cc1ccccc1Sc1ccccc1C(=O)NCC(c1ccco1)N1CCCC1 (configuration not stated) | 0% (inactive) |
| Cn1c(=O)c2c(nc(-n3ccnc3)n2Cc2ccc(Cl)cc2Cl)n(C)c1=O | 0% (inactive) |
| COc1ccc2oc(C(=O)NCC(c3ccco3)N(C)C)c(C)c2c1 (configuration not stated) | 0% (inactive) |
| Cc1c(C(=O)NCC(c2ccco2)N(C)C)oc2c(Cl)cccc12 (configuration not stated) | 0% (inactive) |
| CCOC(=O)N1CCC(NC(=O)CCc2nc(C3=CCN(C)CC3)no2)CC1 | 0% (inactive) |
| CN(Cc1c(F)cccc1Cl)C(=O)CNC(=O)c1ccc2c(c1)OCO2 | 0% (inactive) |
| CN(CCc1ccccc1)C(=O)c1ccc(NC(=O)Cc2ccc(NC(=O)C3CCN(C(=O)C4CCCC4)CC3)cc2)cc1 | 0% (inactive) |
| CN(C(=O)c1ccc(NC(=O)Cc2ccc(NC(=O)C3CCN(C(=O)c4cccc(F)c4)CC3)cc2)cc1)C1CC1 | 0% (inactive) |
| CN(C(=O)c1ccc(NC(=O)Cc2ccc(NC(=O)C3CCN(C(=O)c4ccccc4)CC3)cc2)cc1)C1CC1 | 0% (inactive) |
| CSc1ccccc1OCc1cc(C(=O)N2CCNC(=O)C2)no1 | 0% (inactive) |
| CCOC(=O)N1CCN(C(=O)Nc2ccc(NC(=O)N3CCN(C(=O)OCC)CC3)cc2)CC1 | 0% (inactive) |
| COc1ccc(C(=O)N2CCC(C(=O)Nc3ccc(CC(=O)Nc4ccc(C(=O)N(C)C5CC5)cc4)cc3)CC2)cc1 | 0% (inactive) |
| O=C(Cc1ccc(NC(=O)C2CCN(C(=O)C3CCCC3)CC2)cc1)Nc1ccc(C(=O)N2CCOCC2)cc1 | 0% (inactive) |
| CN(C(=O)c1ccc(NC(=O)Cc2ccc(NC(=O)C3CCN(C(=O)c4ccc(F)cc4)CC3)cc2)cc1)C1CC1 | 0% (inactive) |
| CC(=O)Nc1ccc(NC(=O)C2CCN(C(=O)c3cccs3)CC2)cc1 | 0% (inactive) |

From PubChem BioAssay AID624303 (The Scripps Research Institute Molecular Screening Center, 2012)
